Consider 20 compounds from ChEMBL document CHEMBL4393657, “Tetrazole hybrids and their antifungal activities” (2019).

SMILES strings stand for the structures. Converted amounts (≈) assume the structure as drawn.

What all share (type): functional
The subject of one experiment is Cryptococcus neoformans. The experiment in a line: Antifungal activity against Cryptococcus neoformans LA314 assessed as reduction in fungal cell growth incubated for 48 hrs by broth microdilution method. Particulars: LA314, 48 h. On the technique in general: In broth dilution the organism is exposed to a series of concentrations in liquid medium.
Another experiment deals with Nakaseomyces glabratus. The experiment in a line: Antifungal activity against Candida glabrata assessed as reduction in fungal cell growth incubated for 48 hrs by broth microdilution method.
The test system of the next experiment is Candida parapsilosis. The experiment is described as follows: Antifungal activity against Candida parapsilosis ATCC 22019 assessed as reduction in fungal cell growth incubated for 48 hrs by broth microdilution method. Particulars: Lodderomyces parapsilosis, ATCC 22019, 48 h.
The test system of another experiment is Pichia kudriavzevii. The experiment is described as follows: Antifungal activity against Candida krusei assessed as reduction in fungal cell growth incubated for 48 hrs by broth microdilution method.
Another experiment relates to Candida albicans. The experiment in a line: Antifungal activity against Candida albicans assessed as reduction in fungal cell growth incubated for 48 hrs by broth microdilution method.
The subject of a further experiment is Candida tropicalis. The experiment is described as follows: Antifungal activity against Candida tropicalis assessed as reduction in fungal cell growth incubated for 48 hrs by broth microdilution method.
Another experiment relates to Aspergillus niger. The experiment is described as follows: Antifungal activity against Aspergillus niger assessed as reduction in fungal cell growth incubated for 72 hrs by broth microdilution method.

Usually MIC stands for the least concentration at which growth counts as inhibited.

Regarding `CC(n1nnc(CCN2CCN(c3c(Cl)cccc3Cl)CC2)n1)C(O)(Cn1cncn1)c1ccc(F)cc1F` (stereo not given), the MIC in the experiment on Cryptococcus neoformans, in the experiment on Nakaseomyces glabratus, with Candida parapsilosis, with Pichia kudriavzevii, with Candida albicans and with Candida tropicalis was 1 to 16 µg/mL (≈ 1.73 to 27.7 µM) each time. In addition, the minimal inhibitory concentration (MIC) in the experiment with Aspergillus niger is 1 to 16 µg/mL (≈ 1.73 to 27.7 µM).

On to `OC(Cn1cncn1)(Cn1nnnc1CCN1CCN(c2cccc(C(F)(F)F)c2)CC1)c1ccc(F)cc1F` (stereo not given), for which the MIC with Cryptococcus neoformans, with Nakaseomyces glabratus, in the experiment with Candida parapsilosis, with Pichia kudriavzevii, in the experiment on Candida albicans and in the experiment with Candida tropicalis was 0.5 to 16 µg/mL (≈ 0.887 to 28.4 µM) each time. In addition, in the experiment on Aspergillus niger, the MIC was 0.5 to 16 µg/mL (≈ 0.887 to 28.4 µM).

With `C[C@H](n1nnc(CCN2CCN(c3ccc(Cl)cc3)CC2)n1)[C@](O)(Cn1cncn1)c1ccc(F)cc1F`, the MIC with Cryptococcus neoformans, in the experiment on Nakaseomyces glabratus, in the experiment with Candida parapsilosis, with Pichia kudriavzevii, in the experiment with Candida albicans and in the experiment on Candida tropicalis was 0.25 to 16 µg/mL (≈ 0.46 to 29.4 µM) in each case. Further, the minimum inhibitory concentration (MIC) in the experiment with Aspergillus niger is 0.25 to 16 µg/mL (≈ 0.46 to 29.4 µM).

For `COc1ccccc1N1CCN(CCc2nnnn2CC(O)(Cn2cncn2)c2ccc(F)cc2F)CC1` (stereo not given), the minimal inhibitory concentration (MIC) in the experiment with Cryptococcus neoformans, with Nakaseomyces glabratus, in the experiment on Candida parapsilosis, with Pichia kudriavzevii, in the experiment with Candida albicans and in the experiment on Candida tropicalis was 0.5 to 16 µg/mL (≈ 0.951 to 30.4 µM) each time. In the experiment on Aspergillus niger, the minimal inhibitory concentration (MIC) fell in the range of 0.5 to 16 µg/mL (≈ 0.951 to 30.4 µM).

For the compound `OC(Cn1cncn1)(Cn1nnc(CCN2CCN(C(c3ccccc3)c3ccccc3)CC2)n1)c1ccc(F)cc1F` (stereo not given), the minimum inhibitory concentration (MIC) in the experiment on Cryptococcus neoformans, in the experiment on Nakaseomyces glabratus, in the experiment on Candida parapsilosis, in the experiment with Pichia kudriavzevii, in the experiment with Candida albicans and in the experiment on Candida tropicalis was 1 to 16 µg/mL (≈ 1.71 to 27.3 µM) in each case. Besides, the minimal inhibitory concentration (MIC) in the experiment with Aspergillus niger is 1 to 16 µg/mL (≈ 1.71 to 27.3 µM).

With `OC(Cn1cncn1)(Cn1nnc(CCN2CCN(c3cccc(Cl)c3)CC2)n1)c1ccc(F)cc1F` (stereo not given), the minimal inhibitory concentration (MIC) in the experiment with Cryptococcus neoformans, in the experiment on Nakaseomyces glabratus, in the experiment with Candida parapsilosis, with Pichia kudriavzevii, in the experiment with Candida albicans and in the experiment on Candida tropicalis was 1 to 16 µg/mL (≈ 1.89 to 30.2 µM) each time. Also, the minimal inhibitory concentration (MIC) with Aspergillus niger lay in the range of 1 to 16 µg/mL (≈ 1.89 to 30.2 µM).

As to `C[C@H](n1nnc(CCN2CCN(c3cccc(Cl)c3)CC2)n1)[C@](O)(Cn1cncn1)c1ccc(F)cc1F`, the MIC with Cryptococcus neoformans, with Nakaseomyces glabratus, in the experiment on Candida parapsilosis, with Pichia kudriavzevii, with Candida albicans and with Candida tropicalis was 0.25 to 16 µg/mL (≈ 0.46 to 29.4 µM) each time. Also, the MIC in the experiment with Aspergillus niger fell in the range of 0.25 to 16 µg/mL (≈ 0.46 to 29.4 µM).

In the case of `OC(Cn1cncn1)(Cn1nnc(CCN2CCN(c3ccccc3Cl)CC2)n1)c1ccc(F)cc1F` (stereo not given), the MIC with Cryptococcus neoformans, in the experiment with Nakaseomyces glabratus, in the experiment on Candida parapsilosis, in the experiment on Pichia kudriavzevii, in the experiment on Candida albicans and in the experiment on Candida tropicalis was 1 to 16 µg/mL (≈ 1.89 to 30.2 µM) throughout. Besides, the minimal inhibitory concentration (MIC) in the experiment with Aspergillus niger was 1 to 16 µg/mL (≈ 1.89 to 30.2 µM).

Regarding `C[C@H](n1nnnc1CCN1CCN(c2ccccc2)CC1)[C@](O)(Cn1cncn1)c1ccc(F)cc1F`, the minimum inhibitory concentration (MIC) in the experiment on Cryptococcus neoformans, in the experiment with Nakaseomyces glabratus, with Candida parapsilosis, in the experiment with Pichia kudriavzevii, with Candida albicans and in the experiment with Candida tropicalis was 0.12 to 16 µg/mL (≈ 0.235 to 31.4 µM) throughout. Moreover, the MIC with Aspergillus niger was in the range of 0.12 to 16 µg/mL (≈ 0.235 to 31.4 µM).

On to `C[C@H](n1nnnc1CCN1CCN(C(c2ccccc2)c2ccccc2)CC1)[C@](O)(Cn1cncn1)c1ccc(F)cc1F`, for which the MIC with Cryptococcus neoformans, with Nakaseomyces glabratus, in the experiment on Candida parapsilosis, in the experiment on Pichia kudriavzevii, in the experiment on Candida albicans and in the experiment with Candida tropicalis was 0.12 to 16 µg/mL (≈ 0.2 to 26.7 µM) in each case. In addition, the minimum inhibitory concentration (MIC) in the experiment with Aspergillus niger lay within 0.12 to 16 µg/mL (≈ 0.2 to 26.7 µM).

Turning to `C[C@H](n1nnc(CCN2CCN(Cc3ccccc3)CC2)n1)[C@](O)(Cn1cncn1)c1ccc(F)cc1F`, the MIC in the experiment with Cryptococcus neoformans, with Nakaseomyces glabratus, with Candida parapsilosis, in the experiment on Pichia kudriavzevii, in the experiment on Candida albicans and in the experiment with Candida tropicalis was 0.25 to 16 µg/mL (≈ 0.477 to 30.6 µM) each time. For the same compound, in the experiment on Aspergillus niger, the MIC was 0.25 to 16 µg/mL (≈ 0.477 to 30.6 µM).

On to `CC(n1nnc(CCN2CCN(c3ccc(F)cc3)CC2)n1)C(O)(Cn1cncn1)c1ccc(F)cc1F` (stereo not given), for which the MIC in the experiment on Cryptococcus neoformans, in the experiment with Nakaseomyces glabratus, in the experiment on Candida parapsilosis, in the experiment on Pichia kudriavzevii, in the experiment on Candida albicans and in the experiment on Candida tropicalis was 1 to 16 µg/mL (≈ 1.9 to 30.3 µM) each time. In addition, the MIC in the experiment with Aspergillus niger lay within 1 to 16 µg/mL (≈ 1.9 to 30.3 µM).

Regarding `COc1ccc(N2CCN(CCc3nnnn3C(C)C(O)(Cn3cncn3)c3ccc(F)cc3F)CC2)cc1` (stereo not given), the MIC in the experiment with Cryptococcus neoformans, in the experiment on Nakaseomyces glabratus, in the experiment on Candida parapsilosis, with Pichia kudriavzevii, with Candida albicans and in the experiment with Candida tropicalis was 0.5 to 16 µg/mL (≈ 0.927 to 29.7 µM) each time. The minimal inhibitory concentration (MIC) in the experiment on Aspergillus niger was in the range of 0.5 to 16 µg/mL (≈ 0.927 to 29.7 µM).

With `CC(n1nnnc1CCN1CCN(c2ccc(F)cc2)CC1)C(O)(Cn1cncn1)c1ccc(F)cc1F` (stereo not given), the MIC with Cryptococcus neoformans, in the experiment on Nakaseomyces glabratus, in the experiment with Candida parapsilosis, in the experiment on Pichia kudriavzevii, in the experiment on Candida albicans and in the experiment on Candida tropicalis was 0.5 to 16 µg/mL (≈ 0.948 to 30.3 µM) each time. For the same compound, in the experiment on Aspergillus niger, the MIC fell in the range of 0.5 to 16 µg/mL (≈ 0.948 to 30.3 µM).

For `CCCCOc1ccccc1N1CCN(CCc2nnnn2C(C)C(O)(Cn2cncn2)c2ccc(F)cc2F)CC1` (stereo not given), the minimal inhibitory concentration (MIC) in the experiment on Cryptococcus neoformans, in the experiment with Nakaseomyces glabratus, in the experiment with Candida parapsilosis, in the experiment with Pichia kudriavzevii, with Candida albicans and in the experiment on Candida tropicalis was 0.5 to 16 µg/mL (≈ 0.86 to 27.5 µM) each time. For the same compound, the MIC with Aspergillus niger lay within 0.5 to 16 µg/mL (≈ 0.86 to 27.5 µM).

In the case of `COc1ccccc1N1CCN(CCc2nnnn2[C@@H](C)[C@](O)(Cn2cncn2)c2ccc(F)cc2F)CC1`, the MIC with Cryptococcus neoformans, with Nakaseomyces glabratus, in the experiment on Candida parapsilosis, in the experiment on Pichia kudriavzevii, in the experiment on Candida albicans and with Candida tropicalis was 0.12 to 16 µg/mL (≈ 0.222 to 29.7 µM) in each case. For the same compound, the MIC with Aspergillus niger lay in the range of 0.12 to 16 µg/mL (≈ 0.222 to 29.7 µM).

In the case of `CC(n1nnc(CCN2CCN(c3ccccc3)CC2)n1)C(O)(Cn1cncn1)c1ccc(F)cc1F` (stereo not given), the MIC with Cryptococcus neoformans, in the experiment with Nakaseomyces glabratus, with Candida parapsilosis, in the experiment on Pichia kudriavzevii, with Candida albicans and in the experiment with Candida tropicalis was 1 to 16 µg/mL (≈ 1.96 to 31.4 µM) throughout. In the experiment on Aspergillus niger, the MIC was in the range of 1 to 16 µg/mL (≈ 1.96 to 31.4 µM).

On to `C[C@H](n1nnnc1CCN1CCN(c2ccccn2)CC1)[C@](O)(Cn1cncn1)c1ccc(F)cc1F`, for which the minimal inhibitory concentration (MIC) in the experiment with Cryptococcus neoformans, in the experiment on Nakaseomyces glabratus, in the experiment on Candida parapsilosis, in the experiment on Pichia kudriavzevii, in the experiment on Candida albicans and in the experiment with Candida tropicalis was 0.12 to 16 µg/mL (≈ 0.235 to 31.3 µM) throughout. Further, in the experiment on Aspergillus niger, the MIC lay within 0.12 to 16 µg/mL (≈ 0.235 to 31.3 µM).

For the compound `OC(Cn1cncn1)(Cn1nnc(CCN2CCN(c3ccccn3)CC2)n1)c1ccc(F)cc1F` (stereo not given), the MIC with Cryptococcus neoformans, in the experiment with Nakaseomyces glabratus, in the experiment with Candida parapsilosis, in the experiment with Pichia kudriavzevii, in the experiment on Candida albicans and with Candida tropicalis was 1 to 16 µg/mL (≈ 2.01 to 32.2 µM) each time. For the same compound, the MIC in the experiment with Aspergillus niger was 1 to 16 µg/mL (≈ 2.01 to 32.2 µM).

As for `CC(n1nnc(CCN2CCN(c3ccccn3)CC2)n1)C(O)(Cn1cncn1)c1ccc(F)cc1F` (stereo not given), the MIC in the experiment on Cryptococcus neoformans, in the experiment on Nakaseomyces glabratus, in the experiment on Candida parapsilosis, in the experiment with Pichia kudriavzevii, in the experiment on Candida albicans and in the experiment with Candida tropicalis was 1 to 16 µg/mL (≈ 1.96 to 31.3 µM) throughout. In the experiment on Aspergillus niger, the MIC was 1 to 16 µg/mL (≈ 1.96 to 31.3 µM).
